≈ marks a conversion by molar mass, not a printed value.
Target: T1, Myeloperoxidase (Homo sapiens, UniProt P05164)
T1 sequence (P05164 whole entry): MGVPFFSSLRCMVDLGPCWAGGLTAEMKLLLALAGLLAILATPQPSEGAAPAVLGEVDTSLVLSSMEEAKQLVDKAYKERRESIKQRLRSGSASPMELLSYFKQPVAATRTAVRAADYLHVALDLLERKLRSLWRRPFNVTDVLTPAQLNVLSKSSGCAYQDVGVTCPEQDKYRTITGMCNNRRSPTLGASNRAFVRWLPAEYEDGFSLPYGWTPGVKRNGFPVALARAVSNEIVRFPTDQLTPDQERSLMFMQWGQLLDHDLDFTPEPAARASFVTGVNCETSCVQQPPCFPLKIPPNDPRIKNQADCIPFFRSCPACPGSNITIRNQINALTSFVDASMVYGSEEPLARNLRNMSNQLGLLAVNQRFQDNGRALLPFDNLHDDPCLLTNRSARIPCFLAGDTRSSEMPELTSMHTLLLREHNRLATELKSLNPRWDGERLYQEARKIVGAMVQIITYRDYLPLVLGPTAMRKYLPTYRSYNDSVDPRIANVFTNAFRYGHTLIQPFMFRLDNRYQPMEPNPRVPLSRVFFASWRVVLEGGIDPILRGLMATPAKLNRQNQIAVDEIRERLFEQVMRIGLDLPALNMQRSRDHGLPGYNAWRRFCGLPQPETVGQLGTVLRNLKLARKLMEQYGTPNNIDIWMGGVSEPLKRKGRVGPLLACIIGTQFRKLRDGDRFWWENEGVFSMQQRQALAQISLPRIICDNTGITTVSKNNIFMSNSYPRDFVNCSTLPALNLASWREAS
Assay: Inhibition of myeloperoxidase (unknown origin)
Conditions: not given

| IC50 | Compound |
| --- | --- |
| 0.33 µM | NCCCCn1cc(-c2ccc3cc[nH]c3c2)c(C(F)(F)F)n1 |
| 4.2 µM | NC(=O)CCn1cc(-c2ccc3cc[nH]c3c2)c(C(F)(F)F)n1 |
| 5.2 µM | O=C(O)CCn1cc(-c2ccc3cc[nH]c3c2)c(C(F)(F)F)n1 |

Second part, the molecule before the results:

| Compound | IC50 |
| --- | --- |
| FC(F)(F)c1nn(-c2ccc(Cc3nc[nH]n3)cc2)cc1-c1ccc2cc[nH]c2c1 | 0.25 µM |
| NC[C@H]1C[C@H](n2cc(-c3ccc4cc[nH]c4c3)c(C(F)(F)F)n2)C1 | 0.17 µM |
| N[C@@H](c1ccc(-n2cc(-c3ccc4cc[nH]c4c3)c(C(F)(F)F)n2)cc1)C(F)(F)F | 0.42 µM |

Target: T1, Myeloperoxidase
Assay: Inhibition of human plasma myeloperoxidase
Conditions: not given

| IC50 | Compound |
| --- | --- |
| 0.9 µM | NCCCCn1cc(-c2ccc3cc[nH]c3c2)c(C(F)(F)F)n1 |
| 23 µM | FC(F)(F)c1nn(-c2ccc(Cc3nc[nH]n3)cc2)cc1-c1ccc2cc[nH]c2c1 |
| 18 µM | N[C@@H](c1ccc(-n2cc(-c3ccc4cc[nH]c4c3)c(C(F)(F)F)n2)cc1)C(F)(F)F |

Target: T2, Myeloperoxidase (Homo sapiens) (UniProt P05164)
T2 sequence (whole entry): T1 sequence (P05164 whole entry)
Assay: Inhibition of myeloperoxidase (unknown origin) assessed as ratio of Kinact to Ki
Conditions: not given

| Ratio | Compound |
| --- | --- |
| 61000 M⁻¹ s⁻¹ | NCCCCn1cc(-c2ccc3cc[nH]c3c2)c(C(F)(F)F)n1 |
| 106000 M⁻¹ s⁻¹ | FC(F)(F)c1nn(-c2ccc(Cc3nc[nH]n3)cc2)cc1-c1ccc2cc[nH]c2c1 |
| 122000 M⁻¹ s⁻¹ | N[C@@H](c1ccc(-n2cc(-c3ccc4cc[nH]c4c3)c(C(F)(F)F)n2)cc1)C(F)(F)F |

Target: T2, Myeloperoxidase (Homo sapiens)
Assay: Inhibition of myeloperoxidase (unknown origin) assessed as partition ratio by Amplex red based fluorescence assay
Conditions: not given

| Ratio | Compound |
| --- | --- |
| 42 | NCCCCn1cc(-c2ccc3cc[nH]c3c2)c(C(F)(F)F)n1 |
| > 200 | NC(=O)CCn1cc(-c2ccc3cc[nH]c3c2)c(C(F)(F)F)n1 |
| > 200 | O=C(O)CCn1cc(-c2ccc3cc[nH]c3c2)c(C(F)(F)F)n1 |

More lines, now with the values behind:

| Compound | Ratio |
| --- | --- |
| FC(F)(F)c1nn(-c2ccc(Cc3nc[nH]n3)cc2)cc1-c1ccc2cc[nH]c2c1 | 12 |
| NC[C@H]1C[C@H](n2cc(-c3ccc4cc[nH]c4c3)c(C(F)(F)F)n2)C1 | 6.7 |
| N[C@@H](c1ccc(-n2cc(-c3ccc4cc[nH]c4c3)c(C(F)(F)F)n2)cc1)C(F)(F)F | 17 |

Target: T3, Thyroid peroxidase (Homo sapiens, UniProt P07202)
T3 sequence (P07202 whole entry): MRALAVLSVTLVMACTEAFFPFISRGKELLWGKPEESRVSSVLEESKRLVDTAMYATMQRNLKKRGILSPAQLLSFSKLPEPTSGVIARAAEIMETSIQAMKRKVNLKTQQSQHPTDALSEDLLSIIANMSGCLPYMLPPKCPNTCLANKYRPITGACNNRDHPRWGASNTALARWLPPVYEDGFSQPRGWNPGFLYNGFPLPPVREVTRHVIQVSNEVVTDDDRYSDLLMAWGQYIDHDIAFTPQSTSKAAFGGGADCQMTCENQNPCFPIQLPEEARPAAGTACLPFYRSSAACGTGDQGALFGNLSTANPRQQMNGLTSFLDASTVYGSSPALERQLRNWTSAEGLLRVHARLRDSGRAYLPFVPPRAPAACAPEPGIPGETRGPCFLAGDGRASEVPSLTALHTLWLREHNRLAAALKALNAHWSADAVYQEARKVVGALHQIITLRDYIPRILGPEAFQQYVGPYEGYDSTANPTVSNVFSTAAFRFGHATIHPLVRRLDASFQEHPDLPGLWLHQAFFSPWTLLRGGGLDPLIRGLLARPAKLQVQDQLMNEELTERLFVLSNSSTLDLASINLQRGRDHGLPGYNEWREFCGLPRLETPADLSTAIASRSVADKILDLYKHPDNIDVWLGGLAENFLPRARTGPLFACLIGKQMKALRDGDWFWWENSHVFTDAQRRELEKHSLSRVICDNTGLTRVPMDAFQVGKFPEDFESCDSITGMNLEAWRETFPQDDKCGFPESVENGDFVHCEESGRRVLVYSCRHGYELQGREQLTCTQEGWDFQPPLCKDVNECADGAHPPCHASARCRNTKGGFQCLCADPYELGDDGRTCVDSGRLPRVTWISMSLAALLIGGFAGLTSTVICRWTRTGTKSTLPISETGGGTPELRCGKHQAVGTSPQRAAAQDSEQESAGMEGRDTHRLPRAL
Assay: Inhibition of thyroid peroxidase (unknown origin)
Conditions: not given

| IC50 | Compound |
| --- | --- |
| > 30 µM | NCCCCn1cc(-c2ccc3cc[nH]c3c2)c(C(F)(F)F)n1 |
| > 30 µM | NC(=O)CCn1cc(-c2ccc3cc[nH]c3c2)c(C(F)(F)F)n1 |

Further lines, the molecule ahead of its results:

| Compound | IC50 |
| --- | --- |
| FC(F)(F)c1nn(-c2ccc(Cc3nc[nH]n3)cc2)cc1-c1ccc2cc[nH]c2c1 | 5.9 µM |
| NC[C@H]1C[C@H](n2cc(-c3ccc4cc[nH]c4c3)c(C(F)(F)F)n2)C1 | > 30 µM |
| N[C@@H](c1ccc(-n2cc(-c3ccc4cc[nH]c4c3)c(C(F)(F)F)n2)cc1)C(F)(F)F | > 30 µM |

Test system: not listed separately
Assay: Solubility of the compound at pH 6.8
Type: physicochemical
Conditions: buffer

| solubility | Compound |
| --- | --- |
| 73 µM (≈ 23.5 µg/mL) | NCCCCn1cc(-c2ccc3cc[nH]c3c2)c(C(F)(F)F)n1 |
| 11 µM (≈ 4.49 µg/mL) | FC(F)(F)c1nn(-c2ccc(Cc3nc[nH]n3)cc2)cc1-c1ccc2cc[nH]c2c1 |
| 21 µM (≈ 8.91 µg/mL) | N[C@@H](c1ccc(-n2cc(-c3ccc4cc[nH]c4c3)c(C(F)(F)F)n2)cc1)C(F)(F)F |

Target: Voltage-gated inwardly rectifying potassium channel KCNH2 (Homo sapiens, UniProt Q12809)
Assay: Inhibition of human ERG
Conditions: not given

Sequence of Voltage-gated inwardly rectifying potassium channel KCNH2 (Q12809 whole entry): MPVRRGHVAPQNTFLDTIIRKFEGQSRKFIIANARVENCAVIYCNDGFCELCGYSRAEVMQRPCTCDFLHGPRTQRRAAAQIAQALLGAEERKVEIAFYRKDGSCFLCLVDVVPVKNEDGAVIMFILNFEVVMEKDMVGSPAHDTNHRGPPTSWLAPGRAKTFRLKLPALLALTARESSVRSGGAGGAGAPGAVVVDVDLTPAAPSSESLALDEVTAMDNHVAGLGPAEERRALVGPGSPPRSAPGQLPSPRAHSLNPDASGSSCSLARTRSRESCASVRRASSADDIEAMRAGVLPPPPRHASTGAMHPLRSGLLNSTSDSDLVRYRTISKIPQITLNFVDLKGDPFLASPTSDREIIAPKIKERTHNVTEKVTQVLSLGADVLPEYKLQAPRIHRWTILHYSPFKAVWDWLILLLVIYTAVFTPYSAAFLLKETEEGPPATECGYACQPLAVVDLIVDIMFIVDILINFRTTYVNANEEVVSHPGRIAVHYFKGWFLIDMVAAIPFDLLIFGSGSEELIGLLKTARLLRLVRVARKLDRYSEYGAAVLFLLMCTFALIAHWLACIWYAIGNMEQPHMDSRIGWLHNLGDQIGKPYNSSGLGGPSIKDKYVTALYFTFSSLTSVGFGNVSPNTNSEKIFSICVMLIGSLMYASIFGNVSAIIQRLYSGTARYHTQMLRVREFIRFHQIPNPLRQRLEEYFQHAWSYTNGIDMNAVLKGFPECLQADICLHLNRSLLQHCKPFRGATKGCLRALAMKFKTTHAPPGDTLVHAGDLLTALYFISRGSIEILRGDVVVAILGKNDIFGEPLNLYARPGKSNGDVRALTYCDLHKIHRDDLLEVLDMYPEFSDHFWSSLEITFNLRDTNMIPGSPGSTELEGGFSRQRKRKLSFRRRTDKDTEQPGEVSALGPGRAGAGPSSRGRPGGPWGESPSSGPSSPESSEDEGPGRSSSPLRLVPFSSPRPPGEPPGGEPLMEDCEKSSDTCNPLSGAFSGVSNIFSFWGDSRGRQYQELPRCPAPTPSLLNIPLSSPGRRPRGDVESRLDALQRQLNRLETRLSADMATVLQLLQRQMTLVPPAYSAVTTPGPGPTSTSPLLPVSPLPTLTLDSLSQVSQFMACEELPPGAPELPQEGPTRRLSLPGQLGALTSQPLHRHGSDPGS

| Compound | IC50 |
| --- | --- |
| NCCCCn1cc(-c2ccc3cc[nH]c3c2)c(C(F)(F)F)n1 | 1.9 µM |
| FC(F)(F)c1nn(-c2ccc(Cc3nc[nH]n3)cc2)cc1-c1ccc2cc[nH]c2c1 | > 30 µM |
| N[C@@H](c1ccc(-n2cc(-c3ccc4cc[nH]c4c3)c(C(F)(F)F)n2)cc1)C(F)(F)F | > 30 µM |

Target: Cytochrome P450 3A4 (Homo sapiens, UniProt P08684)
Assay: Inhibition of CYP3A4 (unknown origin)
Type: ADME
Conditions: not given

Sequence of Cytochrome P450 3A4 (P08684 whole entry): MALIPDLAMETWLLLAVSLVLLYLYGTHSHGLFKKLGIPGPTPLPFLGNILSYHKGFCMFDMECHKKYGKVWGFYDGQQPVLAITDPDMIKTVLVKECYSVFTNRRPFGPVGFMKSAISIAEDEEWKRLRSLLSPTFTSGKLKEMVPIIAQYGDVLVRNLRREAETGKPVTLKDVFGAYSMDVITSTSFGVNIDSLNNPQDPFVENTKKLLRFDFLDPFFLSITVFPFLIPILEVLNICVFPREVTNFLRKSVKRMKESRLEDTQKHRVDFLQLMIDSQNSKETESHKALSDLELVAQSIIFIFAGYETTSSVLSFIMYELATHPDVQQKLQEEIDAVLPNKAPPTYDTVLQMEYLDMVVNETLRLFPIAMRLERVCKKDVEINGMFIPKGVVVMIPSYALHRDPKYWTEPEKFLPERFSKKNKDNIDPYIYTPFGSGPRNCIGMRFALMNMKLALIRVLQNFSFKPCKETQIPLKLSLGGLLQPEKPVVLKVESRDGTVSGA

| IC | Compound |
| --- | --- |
| > 50 µM | NCCCCn1cc(-c2ccc3cc[nH]c3c2)c(C(F)(F)F)n1 |
| 6.9 µM | FC(F)(F)c1nn(-c2ccc(Cc3nc[nH]n3)cc2)cc1-c1ccc2cc[nH]c2c1 |
| 17 µM | N[C@@H](c1ccc(-n2cc(-c3ccc4cc[nH]c4c3)c(C(F)(F)F)n2)cc1)C(F)(F)F |

Target: Cytochrome P450 2D6 (Homo sapiens, UniProt P10635)
Assay: Inhibition of CYP2D6 (unknown origin)
Type: ADME
Conditions: not given

Sequence of Cytochrome P450 2D6 (P10635 whole entry): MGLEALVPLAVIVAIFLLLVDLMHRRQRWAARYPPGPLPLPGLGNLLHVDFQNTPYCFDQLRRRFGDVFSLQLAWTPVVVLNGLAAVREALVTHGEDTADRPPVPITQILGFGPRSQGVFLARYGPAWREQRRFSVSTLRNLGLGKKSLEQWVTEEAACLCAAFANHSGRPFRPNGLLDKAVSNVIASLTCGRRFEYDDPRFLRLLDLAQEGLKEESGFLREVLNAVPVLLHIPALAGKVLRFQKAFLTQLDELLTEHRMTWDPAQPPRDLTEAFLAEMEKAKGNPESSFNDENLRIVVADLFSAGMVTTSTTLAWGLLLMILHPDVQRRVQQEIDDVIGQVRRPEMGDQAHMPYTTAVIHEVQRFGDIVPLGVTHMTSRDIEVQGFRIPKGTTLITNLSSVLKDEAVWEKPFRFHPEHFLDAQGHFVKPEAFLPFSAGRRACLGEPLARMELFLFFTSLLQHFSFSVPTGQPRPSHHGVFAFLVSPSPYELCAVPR

| IC | Compound |
| --- | --- |
| 43 µM | NCCCCn1cc(-c2ccc3cc[nH]c3c2)c(C(F)(F)F)n1 |
| 0.5 µM | FC(F)(F)c1nn(-c2ccc(Cc3nc[nH]n3)cc2)cc1-c1ccc2cc[nH]c2c1 |
| 21 µM | N[C@@H](c1ccc(-n2cc(-c3ccc4cc[nH]c4c3)c(C(F)(F)F)n2)cc1)C(F)(F)F |

Source: ChEMBL document CHEMBL4622882, “Discovery of a novel indole pharmacophore for the irreversible inhibition of myeloperoxidase (MPO)” (Bioorg Med Chem, 2020)
